# pIC50: −log10 of the molar value.
# Legend:
# A498 [1] = assay: Growth inhibition of human A498 cells assessed as cell growth at 10 uM after 48 hrs by sulforhodamine B assay; format: functional; conditions: A498, 48 h, read-out: Activity
# NCI-H322M = assay: Growth inhibition of human NCI-H322M cells assessed as cell growth at 10 uM after 48 hrs by sulforhodamine B assay; format: functional; conditions: read-out: Activity
# DU-145 = assay: Growth inhibition of human DU145 cells assessed as cell growth at 10 uM after 48 hrs by sulforhodamine B assay; format: functional; conditions: DU-145, 48 h, read-out: Activity
# SN12C = assay: Growth inhibition of human SN12C cells assessed as cell growth at 10 uM after 48 hrs by sulforhodamine B assay; format: functional; conditions: read-out: Activity
# UACC-62 [2] = assay: Growth inhibition of human UACC62 cells assessed as cell growth at 10 uM after 48 hrs by sulforhodamine B assay; format: functional; conditions: UACC-62, 48 h, read-out: Activity
# ACHN [3] = assay: Growth inhibition of human ACHN cells assessed as cell growth at 10 uM after 48 hrs by sulforhodamine B assay; format: functional; conditions: read-out: Activity
# UACC-257 [4] = assay: Growth inhibition of human UACC257 cells assessed as cell growth at 10 uM after 48 hrs by sulforhodamine B assay; format: functional; conditions: UACC-257, 48 h, read-out: Activity
# SF-539 [5] = assay: Growth inhibition of human SF539 cells assessed as cell growth at 10 uM after 48 hrs by sulforhodamine B assay; format: functional; conditions: SF-539, 48 h, read-out: Activity
# 786-0 = assay: Growth inhibition of human 786-0 cells assessed as cell growth at 10 uM after 48 hrs by sulforhodamine B assay; format: functional; conditions: 786-0, 48 h, read-out: Activity
# NCI-H226 = assay: Growth inhibition of human NCI-H226 cells assessed as cell growth at 10 uM after 48 hrs by sulforhodamine B assay; format: functional; conditions: NCI-H226, 48 h, read-out: Activity
# KM12 = assay: Growth inhibition of human KM12 cells assessed as cell growth at 10 uM after 48 hrs by sulforhodamine B assay; format: functional; conditions: KM12, 48 h, read-out: Activity
# RPMI-8226 = assay: Growth inhibition of human RPMI8226 cells assessed as cell growth at 10 uM after 48 hrs by sulforhodamine B assay; format: functional; conditions: RPMI-8226, 48 h, read-out: Activity
# MDA-MB-435 = assay: Growth inhibition of human MDA-MB-435 cells assessed as cell growth at 10 uM after 48 hrs by sulforhodamine B assay; format: functional; conditions: MDA-MB-435, 48 h, read-out: Activity
# MCF7 = assay: Growth inhibition of human MCF7 cells assessed as cell growth at 10 uM after 48 hrs by sulforhodamine B assay; format: functional; conditions: MCF7, 48 h, read-out: Activity
# SW-620 [6] = assay: Growth inhibition of human SW620 cells assessed as cell growth at 10 uM after 48 hrs by sulforhodamine B assay; format: functional; conditions: SW-620, 48 h, read-out: Activity
# CAKI-1 = assay: Growth inhibition of human CAKI-1 cells assessed as cell growth at 10 uM after 48 hrs by sulforhodamine B assay; format: functional; conditions: CAKI-1, 48 h, read-out: Activity
# SK-MEL-28 [7] = assay: Growth inhibition of human SK-MEL-28 cells assessed as cell growth at 10 uM after 48 hrs by sulforhodamine B assay; format: functional; conditions: SK-MEL-28, 48 h, read-out: Activity
# MOLT-4 = assay: Growth inhibition of human MOLT4 cells assessed as cell growth at 10 uM after 48 hrs by sulforhodamine B assay; format: functional; conditions: MOLT-4, 48 h, read-out: Activity
# BT-549 [8] = assay: Growth inhibition of human BT549 cells assessed as cell growth at 10 uM after 48 hrs by sulforhodamine B assay; format: functional; conditions: BT-549, 48 h, read-out: Activity
# IGROV-1 = assay: Growth inhibition of human IGROV1 cells after 48 hrs by sulforhodamine B assay; format: functional; conditions: IGROV-1, 48 h
# HCT-116 = assay: Growth inhibition of human HCT116 cells after 48 hrs by sulforhodamine B assay; format: functional; conditions: HCT-116, 48 h
# SW-620 [9] = assay: Growth inhibition of human SW620 cells after 48 hrs by sulforhodamine B assay; format: functional; conditions: SW-620, 48 h
# UACC-257 [10] = assay: Growth inhibition of human UACC257 cells after 48 hrs by sulforhodamine B assay; format: functional; conditions: UACC-257, 48 h
# BT-549 [11] = assay: Growth inhibition of human BT549 cells after 48 hrs by sulforhodamine B assay; format: functional; conditions: BT-549, 48 h
# COLO 205 = assay: Growth inhibition of human COLO205 cells after 48 hrs by sulforhodamine B assay; format: functional; conditions: COLO 205, 48 h
# [12] = Growth inhibition of human HCC2998 cells after 48 hrs by sulforhodamine B assay; format: functional; conditions: HCC 2998, 48 h
# SF-539 [13] = assay: Growth inhibition of human SF539 cells after 48 hrs by sulforhodamine B assay; format: functional; conditions: SF-539, 48 h
# ACHN [14] = assay: Growth inhibition of human ACHN cells after 48 hrs by sulforhodamine B assay; format: functional
# UACC-62 [15] = assay: Growth inhibition of human UACC62 cells after 48 hrs by sulforhodamine B assay; format: functional; conditions: UACC-62, 48 h
# RXF 393 = assay: Growth inhibition of human RXF393 cells after 48 hrs by sulforhodamine B assay; format: functional; conditions: RXF 393, 48 h
# A498 [16] = assay: Growth inhibition of human A498 cells after 48 hrs by sulforhodamine B assay; format: functional, cell-based; conditions: A498, 48 h
# NCI-H522 = assay: Growth inhibition of human NCI-H522 cells after 48 hrs by sulforhodamine B assay; format: functional; conditions: NCI-H522, 48 h
# SK-MEL-28 [17] = assay: Growth inhibition of human SK-MEL-28 cells after 48 hrs by sulforhodamine B assay; format: functional; conditions: SK-MEL-28, 48 h
# [18] = read-out: LC50 (the source's name)
smiles,measurement,setting,value
COc1cc(-c2nn(-c3cccc(NC(=O)Nc4ccccc4)c3)cc2-c2ccncc2)ccc1Cl,growth at 10 µM,A498 [1],79.7%
same,growth at 10 µM,NCI-H322M,95.5%
same,growth at 10 µM,DU-145,101%
same,growth at 10 µM,SN12C,86.2%
same,growth at 10 µM,UACC-62 [2],86.5%
same,growth at 10 µM,ACHN [3],78.2%
same,growth at 10 µM,UACC-257 [4],84.5%
same,growth at 10 µM,SF-539 [5],90%
same,growth at 10 µM,786-0,93.1%
same,growth at 10 µM,NCI-H226,92.3%
same,growth at 10 µM,KM12,73.7%
same,growth at 10 µM,RPMI-8226,68%
same,growth at 10 µM,MDA-MB-435,22.6%
same,growth at 10 µM,MCF7,88.8%
same,growth at 10 µM,SW-620 [6],82.8%
same,growth at 10 µM,CAKI-1,96.1%
same,growth at 10 µM,SK-MEL-28 [7],86.3%
same,growth at 10 µM,MOLT-4,57%
same,growth at 10 µM,BT-549 [8],89.9%
COc1cc(-c2nn(-c3cccc(NC(=O)c4ccc(Br)c(C)c4)c3)cc2-c2ccncc2)ccc1Cl,growth at 10 µM,A498 [1],68%
same,growth at 10 µM,NCI-H322M,91.7%
same,growth at 10 µM,DU-145,102%
same,growth at 10 µM,SN12C,81%
same,growth at 10 µM,UACC-62 [2],79.9%
same,growth at 10 µM,ACHN [3],70.2%
same,growth at 10 µM,UACC-257 [4],79.5%
same,growth at 10 µM,SF-539 [5],76.8%
same,growth at 10 µM,786-0,85.9%
same,growth at 10 µM,NCI-H226,84.7%
same,growth at 10 µM,KM12,82.7%
same,growth at 10 µM,RPMI-8226,64.7%
same,growth at 10 µM,MDA-MB-435,34.7%
same,growth at 10 µM,MCF7,75%
same,growth at 10 µM,SW-620 [6],82.7%
same,growth at 10 µM,CAKI-1,86.8%
same,growth at 10 µM,SK-MEL-28 [7],80.2%
same,growth at 10 µM,MOLT-4,68.7%
same,growth at 10 µM,BT-549 [8],91.4%
O=C(Nc1cccc(-n2cc(-c3ccncc3)c(-c3ccc(Cl)c(O)c3)n2)c1)Nc1ccc(Cl)c(Cl)c1,growth at 10 µM,A498 [1],31.1%
same,GI50,IGROV-1,1.77 µM
same,LC50 (concentration killing 50% of cells),IGROV-1,> 32.5 µM
same,TGI,IGROV-1,> 32.5 µM
same,growth at 10 µM,NCI-H322M,40.6%
same,GI50,HCT-116,1.19 µM
same,TGI,HCT-116,5.73 µM
same,CC50,HCT-116; [18],> 32.5 µM
same,growth at 10 µM,DU-145,25.9%
same,GI50,SW-620 [9],1.46 µM
same,TGI,SW-620 [9],> 32.5 µM
same,CC50,SW-620 [9]; [18],> 32.5 µM
same,growth at 10 µM,SN12C,18%
same,growth at 10 µM,UACC-62 [2],14.9%
same,GI50,UACC-257 [10],0.93 µM
same,TGI,UACC-257 [10],3.16 µM
same,CC50,UACC-257 [10]; [18],> 32.5 µM
same,GI50,BT-549 [11],1.7 µM
same,LC50 (50% lethal concentration),BT-549 [11],> 32.5 µM
same,TGI,BT-549 [11],16.1 µM
same,growth at 10 µM,ACHN [3],12.8%
same,growth at 10 µM,UACC-257 [4],-17.3%
same,GI50,COLO 205,3.96 µM
same,LC50 (concentration killing 50% of cells),COLO 205,22.7 µM
same,TGI,COLO 205,9.49 µM
same,growth at 10 µM,SF-539 [5],37%
same,GI50,[12],2.89 µM
same,TGI,[12],13.9 µM
same,CC50,[12]; [18],> 32.5 µM
same,growth at 10 µM,786-0,30.1%
same,GI50,SF-539 [13],1.34 µM
same,LC50 (concentration killing 50% of cells),SF-539 [13],> 32.5 µM
same,TGI,SF-539 [13],8.97 µM
same,GI50,ACHN [14],1.04 µM
same,TGI,ACHN [14],> 32.5 µM
same,CC50,ACHN [14]; [18],> 32.5 µM
same,GI50,UACC-62 [15],1.11 µM
same,LC50 (50% lethal concentration),UACC-62 [15],29.2 µM
same,TGI,UACC-62 [15],5.21 µM
same,growth at 10 µM,NCI-H226,24.7%
same,growth at 10 µM,KM12,8.15%
same,growth at 10 µM,RPMI-8226,7.89%
same,growth at 10 µM,MDA-MB-435,9.98%
same,GI50,RXF 393,1 µM
same,LC50 (concentration killing 50% of cells),RXF 393,> 32.5 µM
same,TGI,RXF 393,6.4 µM
same,growth at 10 µM,MCF7,5.74%
same,growth at 10 µM,SW-620 [6],24.5%
same,growth at 10 µM,CAKI-1,22.5%
same,growth at 10 µM,SK-MEL-28 [7],24.6%
same,GI50,A498 [16],0.94 µM
same,pIC50,A498 [16],6.03
same,TGI,A498 [16],3.17 µM
same,CC50,A498 [16]; [18],> 32.5 µM
same,growth at 10 µM,MOLT-4,7.64%
same,GI50,NCI-H522,1.19 µM
same,LC50 (concentration killing 50% of cells),NCI-H522,> 32.5 µM
same,TGI,NCI-H522,10.6 µM
same,GI50,SK-MEL-28 [17],1.46 µM
same,LC50,SK-MEL-28 [17],> 32.5 µM
same,TGI,SK-MEL-28 [17],9.85 µM
same,growth at 10 µM,BT-549 [8],34.4%

# — ChEMBL document CHEMBL2440076, “New triarylpyrazoles as broad-spectrum anticancer agents: design, synthesis, and biological evaluation” (Eur J Med Chem, 2013)
